Experimental data: patent publication US5013542A, “Method to inhibit adhesion of disease-causing microorganisms to teeth” (Forsyth Dental Infirmary for Children, priority 1988, dated 1991)
Where no end group is shown, it is not given here.

What was measured:
Assay in all cases: Adhesion of radioactively labeled bacteria to treated hydroxyapatite (HA)
Format in all cases: cell-based
Actinomyces viscosus = system: Actinomyces viscosus
Protocol: (§1) PRP-1 and PRP-1(Tl) were investigated for their abilities to promote adhesion of bacteria to HA. Essentially, the method is to treat HA samples with nothing (negative control), saliva (positive control), or the respective proteins or peptides. The excess agent is removed by washing, and suspensions of radioactively labeled bacteria are added to the treated HA. After a suitable time, the excess bacteria are removed by washing and those remaining adsorbed to the HA are counted in a scintillation counter. In the table of results, bacterial adsorption to saliva-treated HA is considered to be 100%, and adsorption to PRP-1 or PRP-1(Tl)-treated HA expressed as a percentage of this reference value. This approach is necessary because of the diverse behaviors of different bacteria.

Streptococcus sanguis = system: Streptococcus sanguis
Protocol: as §1

Streptococcus mutans = system: Streptococcus mutans
Protocol: as §1

Streptococcus mitis = system: Streptococcus mitis
Protocol: as §1

Bacteroides gingivalis = system: Bacteroides gingivalis
Protocol: as §1

[1] = HA treated with the protein/peptide, saliva-treated HA = 100%

PRP-1(T1): residues 1-30, highly acidic phosphoserine-containing amino-terminal segment of PRP-1 obtained by tryptic digestion at ARG(30) (QDLDEDVSQEDVPLVISDGGDSEQFIDEER; also: phosphoserine-containing, positions not given here; UniProt P02810 17-46, looked up, fragment)
PERCENT ADHESION COMPARED TO SALIVA-TREATED HA (Actinomyces viscosus; [1]): 17% | adhesion of organism to treated HA (in words) (Actinomyces viscosus; versus saliva-treated HA): significantly and profoundly depressed | adhesion of organism to treated HA (in words) (Streptococcus sanguis; S. sanguis, versus saliva-treated HA): significantly and profoundly depressed | PERCENT ADHESION COMPARED TO SALIVA-TREATED HA (Streptococcus sanguis; Streptococcus sanguis, HA treated with the protein/peptide, saliva-treated HA = 100%): 4% | PERCENT ADHESION COMPARED TO SALIVA-TREATED HA (Streptococcus mutans; [1]): 17% | adhesion of organism to treated HA (in words) (Streptococcus mutans; versus saliva-treated HA): significantly and profoundly depressed | PERCENT ADHESION COMPARED TO SALIVA-TREATED HA (Streptococcus mitis; [1]): 26% | adhesion of organism to treated HA (in words) (Streptococcus mitis; versus saliva-treated HA): significantly and profoundly depressed | adhesion of organism to treated HA (in words) (Bacteroides gingivalis; B. gingivalis, versus saliva-treated HA): significantly and profoundly depressed | PERCENT ADHESION COMPARED TO SALIVA-TREATED HA (Bacteroides gingivalis; Bacteroides gingivalis, HA treated with the protein/peptide, saliva-treated HA = 100%): 20%
